Laboratory results as given in patent US20020028188A1, “Method of preparing particularly skin-compatible cosmetic or dermatological cleansing preparations” (priority 1999, published 2002).

Tested on: surface of the skin
Test: adsorption of lauryl ether sulfate on the skin (simulated washing operation, forearm, desorption, ion-pair chromatography)
Format: in vivo, human
Conditions: significance: Yes
Protocol: The method which we have developed for determining the adsorption of lauryl ether sulfate on the skin simulates a washing operation as occurs, for example, during daily showering: Firstly, the inner sides of the forearms are divided into a number of test areas using insulating tape. The area to be treated is then wetted with approximately 50 ml of mains water (T=38±1° C.). The lauryl ether sulfate is then applied. Throughout the application period of 45 s, the test subject distributes the lauryl ether sulfate over the area using 2 fingers in uniform circular movements. At the end of the application period, the test area is rinsed with approximately 950 ml of mains water (T=38±1° C.) and carefully patted dry using a clean cellulose cloth. For the desorption, a plastic ring with an internal diameter of 25 mm is pressed firmly onto the inner side of the test subject's forearm. 1000 μl of a 1% Triton X-100 solution are then introduced into the ring. The tip of a round Teflon-coated spatula is then used to scrape the skin uniformly for 1 min. This leads to suspension of corneocytes. To work up the samples for analysis, the samples are centrifuged and 800 μl of the supernatant are drawn off. The supernatant is analyzed with regard to its lauryl ether sulfate content using ion-pair chromatography. The effectiveness of the desorption method described is 79%, i.e. 79% of the amount of lauryl ether sulfate actually present on the skin are included.

[1] = cosurfactant concentration 3% added to a lauryl ether sulfate solution

Molecule | Effect on the adsorbed amount of lauryl ether sulfate (Reduction by) [1] | further results
CCCCCCCCCCO[C@@H]1O[C@H](CO)[C@@H](O)[C@H](O)[C@H]1O [Decyl glucoside] |  | Effect on the adsorbed amount of lauryl ether sulfate (Reduction by) (cosurfactant concentration 5% added to a lauryl ether sulfate solution): Reduction by 29%
CCCCCCCCCCCC(=O)O [Lauric acid] |  | Effect on the adsorbed amount of lauryl ether sulfate (Reduction by) (cosurfactant concentration 1%, pH9, added to a lauryl ether sulfate solution): Reduction by 15%
Cocamidopropylbetaine | Reduction by 31% | 
Disodium laureth sulfosuccinate | Reduction by 28% | 
Sodium cocoamphoacetate | Reduction by 27% | 
